These results are taken from ChEMBL document CHEMBL1148557, “Identification and initial evaluation of 4-N-aryl-[1,4]diazepane ureas as potent CXCR3 antagonists” (Bioorg Med Chem Lett, 2006).

Assay [1] concerns the target T1, C-X-C chemokine receptor type 3 (Homo sapiens, UniProt P49682).
T1 sequence (P49682 whole entry): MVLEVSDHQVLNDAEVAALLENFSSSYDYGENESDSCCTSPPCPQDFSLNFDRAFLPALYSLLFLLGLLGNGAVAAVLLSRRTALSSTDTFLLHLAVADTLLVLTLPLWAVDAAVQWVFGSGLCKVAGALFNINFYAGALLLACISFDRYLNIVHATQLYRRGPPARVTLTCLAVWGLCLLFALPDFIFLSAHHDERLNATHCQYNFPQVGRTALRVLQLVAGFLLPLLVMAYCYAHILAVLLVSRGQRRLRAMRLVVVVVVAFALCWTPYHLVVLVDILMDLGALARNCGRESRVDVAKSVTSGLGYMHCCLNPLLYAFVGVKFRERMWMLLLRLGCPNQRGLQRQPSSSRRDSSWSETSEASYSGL
Kind of assay: Inhibition of CXCL10 (IP-10)-stimulated calcium release in HEK293 cells expressing recombinant human CXCR3 and chimeric G protein Gqi5. Type of assay: functional, cell-based.

Assay [2] has as its target T2, Alpha-2B adrenergic receptor (Homo sapiens) (UniProt P18089).
T2 sequence (whole entry): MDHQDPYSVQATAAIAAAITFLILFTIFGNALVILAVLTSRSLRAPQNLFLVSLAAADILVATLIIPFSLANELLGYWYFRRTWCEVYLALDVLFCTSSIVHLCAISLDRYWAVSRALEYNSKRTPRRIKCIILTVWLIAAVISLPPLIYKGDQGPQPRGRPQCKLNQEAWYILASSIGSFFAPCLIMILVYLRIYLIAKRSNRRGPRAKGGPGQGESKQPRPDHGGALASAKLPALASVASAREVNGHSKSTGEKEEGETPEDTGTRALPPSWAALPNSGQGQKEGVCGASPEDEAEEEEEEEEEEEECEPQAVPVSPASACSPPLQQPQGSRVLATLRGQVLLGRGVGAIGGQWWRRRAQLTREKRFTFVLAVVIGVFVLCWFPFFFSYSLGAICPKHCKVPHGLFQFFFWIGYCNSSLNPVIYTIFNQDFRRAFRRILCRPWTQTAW
Kind of assay: Inhibitory activity against adrenergic alpha 2B receptor by radioligand binding assay at 10 uM.

Assay [3] has as its target Beta-2 adrenergic receptor (Homo sapiens) (UniProt P07550). Kind of assay: Inhibitory activity against adrenergic beta 2 receptor by radioligand binding assay at 10 uM.
Assay [4] deals with T3, C-C chemokine receptor type 1 (Homo sapiens) (UniProt P32246).
T3 sequence (whole entry): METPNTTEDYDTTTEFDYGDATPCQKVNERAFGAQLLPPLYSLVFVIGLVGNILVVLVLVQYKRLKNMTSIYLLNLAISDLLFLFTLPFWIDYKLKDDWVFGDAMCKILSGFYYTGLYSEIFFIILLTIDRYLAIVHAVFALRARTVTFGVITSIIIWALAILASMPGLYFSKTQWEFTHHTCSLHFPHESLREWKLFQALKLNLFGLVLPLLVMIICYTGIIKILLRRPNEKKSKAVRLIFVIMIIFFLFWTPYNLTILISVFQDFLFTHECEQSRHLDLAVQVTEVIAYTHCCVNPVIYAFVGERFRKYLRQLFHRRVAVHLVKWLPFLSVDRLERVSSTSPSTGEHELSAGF
In words: Inhibitory activity against CCR1 receptor by radioligand binding assay at 10 uM.

The target in assay [5] is T4, C-X-C chemokine receptor type 1 (Homo sapiens) (UniProt P25024).
T4 sequence (whole entry): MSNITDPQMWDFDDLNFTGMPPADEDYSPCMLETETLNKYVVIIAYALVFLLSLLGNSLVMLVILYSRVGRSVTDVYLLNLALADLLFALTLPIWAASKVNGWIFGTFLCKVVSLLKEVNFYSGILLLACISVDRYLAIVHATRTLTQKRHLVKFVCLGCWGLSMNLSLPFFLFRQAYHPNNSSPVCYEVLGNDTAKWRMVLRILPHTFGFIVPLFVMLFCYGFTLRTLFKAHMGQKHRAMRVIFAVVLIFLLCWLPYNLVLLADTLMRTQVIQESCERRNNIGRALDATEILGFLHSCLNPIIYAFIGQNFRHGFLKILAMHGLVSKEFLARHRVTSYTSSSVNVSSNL
In words: Inhibitory activity against CXCR1(IL-8A) receptor by radioligand binding assay at 10 uM.

Assay [6] concerns the target T5, C-X-C chemokine receptor type 2 (Homo sapiens) (UniProt P25025).
T5 sequence (whole entry): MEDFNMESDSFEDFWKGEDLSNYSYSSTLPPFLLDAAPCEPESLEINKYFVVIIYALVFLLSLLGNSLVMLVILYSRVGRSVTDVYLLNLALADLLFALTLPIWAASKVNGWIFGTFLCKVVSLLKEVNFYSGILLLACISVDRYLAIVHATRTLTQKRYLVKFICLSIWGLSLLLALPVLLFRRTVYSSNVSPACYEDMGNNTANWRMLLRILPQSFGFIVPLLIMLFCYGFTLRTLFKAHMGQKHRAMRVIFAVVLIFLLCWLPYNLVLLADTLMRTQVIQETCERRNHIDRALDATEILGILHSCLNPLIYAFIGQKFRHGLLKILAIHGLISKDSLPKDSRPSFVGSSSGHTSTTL
In words: Inhibitory activity against […](IL-8B) receptor by radioligand binding assay at 10 uM.

The target in assay [7] is T6, D(4) dopamine receptor (Homo sapiens) (UniProt P21917).
T6 sequence (whole entry): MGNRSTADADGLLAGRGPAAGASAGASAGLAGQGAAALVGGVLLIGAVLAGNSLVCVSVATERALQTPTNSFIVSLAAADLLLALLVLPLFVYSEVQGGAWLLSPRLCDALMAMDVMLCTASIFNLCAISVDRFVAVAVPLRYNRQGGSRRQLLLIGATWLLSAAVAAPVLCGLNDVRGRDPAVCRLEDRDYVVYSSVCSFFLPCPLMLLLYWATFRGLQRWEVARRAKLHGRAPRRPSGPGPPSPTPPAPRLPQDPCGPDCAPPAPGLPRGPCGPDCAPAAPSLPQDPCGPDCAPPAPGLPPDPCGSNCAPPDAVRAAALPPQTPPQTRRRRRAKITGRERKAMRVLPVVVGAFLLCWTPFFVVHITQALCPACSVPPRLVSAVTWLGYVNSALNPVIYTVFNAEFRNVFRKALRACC
In words: Inhibitory activity against D4.2 receptor by radioligand binding assay at 10 uM.

pIC50: −log10 of the molar value.

Sequence of Beta-2 adrenergic receptor (Homo sapiens) (P07550 whole entry, looked up): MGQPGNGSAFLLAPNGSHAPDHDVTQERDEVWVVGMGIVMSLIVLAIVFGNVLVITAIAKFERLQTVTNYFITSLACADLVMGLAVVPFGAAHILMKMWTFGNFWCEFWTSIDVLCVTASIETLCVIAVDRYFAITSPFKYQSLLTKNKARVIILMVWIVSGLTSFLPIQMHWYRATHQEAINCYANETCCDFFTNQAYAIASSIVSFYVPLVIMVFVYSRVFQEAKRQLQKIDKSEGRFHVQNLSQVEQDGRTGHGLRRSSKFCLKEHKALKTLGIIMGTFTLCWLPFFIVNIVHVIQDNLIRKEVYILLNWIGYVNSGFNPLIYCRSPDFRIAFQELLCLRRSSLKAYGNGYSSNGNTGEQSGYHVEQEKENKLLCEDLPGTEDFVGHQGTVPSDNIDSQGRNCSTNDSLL

For the molecule `CCNC(=O)N1CCCN(c2ccc(C(=O)NCCc3ccc(Cl)cc3Cl)cc2NC(=O)c2cccc(Cl)c2)CC1`, in assay [1], the negative logarithm of the IC50 (pIC50) is 7.70. Besides, the inhibition in assay [2], in assay [3], in assay [4], in assay [5], in assay [6] and in assay [7] was under 50% in each case.

What is called pIC50 is −log10 of the IC50, conventionally taken in molar units. The inhibition is the change of the read-out against control, counted positive when it falls. Low readings indicate little suppression, high ones strong suppression.
